Test results published in PMC5623053 (Frontiers in Molecular Biosciences, 2017).
Entries after “also recorded” stand apart in the source; their conditions may differ. Bridges are numbered along the chain shown (N, C = ends).

Assays:
Grb2 = details: 79 SH2 domains, 100 μg peptide in PBST, duplicate spots; not quantitative
Procedure: (§1) The microarray was conducted by the Protein Array and Analysis Core at the MD Anderson Cancer Center (University of Texas, USA) using standard protocols. […] Each SH2 domain was spotted in duplicate.

Grb10 = details: 79 SH2 domains, 100 μg peptide in PBST, duplicate spots; not quantitative
Procedure: as §1

Grb14 = details: 79 SH2 domains, 100 μg peptide in PBST, duplicate spots; not quantitative
Procedure: as §1

SH2D2A = details: 79 SH2 domains, 100 μg peptide in PBST, duplicate spots; not quantitative
Grb2-SH2 WT = target: T1, Grb2-SH2 WT (Homo sapiens, UniProt P62993); experiment: SPR binding of G7-18NATE to immobilized GST-Grb2-SH2 WT
T1 construct: Grb7-SH2 (residues 415-532) and Grb2-SH2 (residues 58-160) were incorporated into the pGex2T plasmid; made in house; host or cells: E. coli BL21(DE3)pLysS

SH2 domain of Grb10 = details: SPR; ref Gunzburg et al., 2012; cited from earlier work
[1] = system: other SH2 domains in the microarray with leucine present at this position; details: 79 SH2 domains, 100 μg peptide in PBST; SH2 domains other than Grb7 and SH2D2A with leucine at βD6
SH2 domain of Grb14 = details: SPR; ref Gunzburg et al., 2012; cited from earlier work
Grb7-SH2 domain = system: Grb7-SH2 domain; parameters: method as in 3 sources, one per row (each row's own in cited_ref): ref Ambaye et al., 2011a; Watson et al., 2017 ||| ref Gunzburg et al., 2012 ||| ref Janes et al., 1997; Gunzburg et al., 2012; details: ref Janes et al., 1997; Gunzburg et al., 2012; cited from earlier work
Description: Grb7 is a signaling adaptor protein that has been specifically targeted through th ...

Grb2 / HER3 = system: Grb2 / HER3; parameters: method as in Pero et al., 2002; details: ref Pero et al., 2002; cited from earlier work
Grb2-SH2 S90R = target: T2, Grb2-SH2 S90R (Homo sapiens, UniProt P62993, S90R); experiment: SPR binding of G7-18NATE to immobilized GST-Grb2-SH2 S90R mutant
T2 construct: Grb7-SH2 (residues 415-532) and Grb2-SH2 (residues 58-160) were incorporated into the pGex2T plasmid; made in house; host or cells: E. coli BL21(DE3)pLysS

[2] = target: T3, Grb7-SH2 R462S, GST fusion (residues 415-532) (UniProt Q14451 415-532, R462S); experiment: SPR; Biacore T100, CM5 chip; GST-SH2 fusion captured by amine-coupled anti-GST antibody, GST alone on the reference cell; G7-18NATE injected 60 s at 30 μL/min in 150 mM NaPO4, 150 mM NaCl, 1 mM DTT, pH 7.4; equilibrium responses fitted by a single-site binding model; details: both partners purified
T3 construct: Made by site-directed mutagenesis of the wild-type construct; primers in Supplementary Material; also called R462S Grb7-SH2; R462S mutant
T3 sequence (Q14451 415-532 R462S): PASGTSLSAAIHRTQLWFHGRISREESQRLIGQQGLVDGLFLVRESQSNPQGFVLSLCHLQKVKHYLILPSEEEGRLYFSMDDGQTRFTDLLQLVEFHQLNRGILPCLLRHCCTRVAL

[3] = target: T4, Grb2-SH2 wild-type, GST fusion (residues 58-160) (UniProt P62993 58-160); experiment: as above; details: both partners purified
T4 construct: Grb2, SH2 domain, residues 58-160, in pGex2T; also called Grb2-SH2 WT; WT Grb2-SH2

[4] = target: T3, Grb7-SH2 R462S, GST fusion (residues …); experiment: as above; details: both partners purified; remark: listed apart in the source
[5] = target: T5, Grb7-SH2 wild-type, GST fusion (residues 415-532) (UniProt Q14451 415-532); experiment: as above; details: both partners purified
T5 construct: also called Grb7-SH2 WT; WT Grb7-SH2
T5 sequence (Q14451 415-532): as the sequence (Q14451 415-532 R462S) above, with S48R counted along it

[6] = SPR, Biacore T100, single-site binding model, errors are standard error of the fits
[7] = in words, injection of G7-18NATE over the chip surface

Row | Molecule | microarray fluorescence (Grb2) | microarray fluorescence (Grb10) | microarray fluorescence (Grb14) | microarray fluorescence / binding (SH2D2A) | Rmax (Grb2-SH2 WT; [6]) [RU] | SPR binding response (Grb2-SH2 WT; [7]) | binding to Grb10 SH2 domain (SH2 domain of Grb10) | microarray binding [1] | binding to Grb14 SH2 domain (SH2 domain of Grb14) | specificity for Grb7-SH2 over Grb2, Grb10 and Grb14 SH2 domains (Grb7-SH2 domain) | effect on Grb2/HER3 interaction (Grb2 / HER3) | Rmax (Grb2-SH2 S90R; [6]) [RU] | SPR binding response (Grb2-SH2 S90R; [7]) | Kd [2] [µM] | Kd [3] [µM] | Kd [4] [µM] | Kd [5] [µM]
1 | (cyclo-(CH2CO-WFEGYDNTFPC-RRMKWKKK(Biotin))-amide) (sidechain bridge or staple) [G7-18NATE-PB] | no observation of fluorescence | no observation of fluorescence | no observation of fluorescence | Fluorescence was observed, although at much lower intensity | – | – | – | – | – | – | – | – | – | – | – | – | –
2 | C[C@@H](O)[C@@H]1NC(=O)[C@H](CC(N)=O)NC(=O)[C@H](CC(=O)O)NC(=O)[C@H](Cc2ccc(O)cc2)NC(=O)CNC(=O)[C@H](CCC(=O)O)NC(=O)[C@H](Cc2ccccc2)NC(=O)[C@H](Cc2c[nH]c3ccccc23)NC(=O)CSC[C@@H](C(N)=O)NC(=O)[C@@H]2CCCN2C(=O)[C@H](Cc2ccccc2)NC1=O [G7-18NATE] | – | – | – | detectable binding | 14.2 ± 0.9 | only a low binding response | minimal binding | no ability to be bound | minimal binding | specific for the Grb7-SH2 domain over the closely related SH2 domains of Grb2, Grb10, and Grb14 | no effect | 41.0 ± 3 | low responses, though slightly higher than seen for Grb2-SH2 WT; also recorded: minimal binding | – | – | – | –
3 | {CH2CO}-WFEGYDNTFPC-NH2 (thioether N-11, cyclic peptide developed via phage display against the Grb7-SH2 domain; Purity >95% by LC-MS; source: synthetic peptide (standard Fmoc-chemistry), bought: Purar Chemicals (Australia)) [G7-18NATE (cyclo-(CH2CO-WFEGYDNTFPC)-amide)] | – | – | – | – | – | – | – | – | – | – | – | – | – | 7.97 | > 125 | 7.98 | 2.43
